Assay [1] concerns heartbeat and skeletal muscles. Details: method as in PMID 9151755, PMID 18835439, PMID 16968777. The settings on record: released into hemolymph during ecdysis; ref [14],[15],[33]; cited from earlier work.
Assay [2] relates to Schgr-CCAPpre depleted nymphs. Kind of assay: rescue of Schgr-CCAPpre depleted nymphs by CCAP injection. The assay is classed as in vivo, Schistocerca gregaria. The settings on record: daily 0.92 pg CCAP in 4 µL saline throughout N5; 18/30; vs saline; p < 0.05, Fisher's exact test. Here is the method: Figure 4 Phenotypic effect of Schgr-CCAPpre or Schgr-CCAPR-1, -2 and/or -3 depletion on ecdysis. (A) Percentage of nymphs displaying ecdysis arrest at nymphal-adult (N5-Ad) molt (n = 25, per construct). Nymphs were injected at N4D0, N4D4, N5D1, N5D4 and N5D7 with 400 ng of dsGFP (control), dsCCAPpre, dsCCAPR1/2/3a, dsCCAPR1/2/3b, dsCCAPR-1, dsCCAPR-2 or dsCCAPR-3. (B) Percentage of nymphs displaying ecdysis arrest at nymphal-nymphal (N4–N5) and N5-Ad molts (n = 25, per construct). Nymphs were injected in late N3, N4D1 and N4D4 with 400 ng of dsGFP (control), dsCCAPpre or dsCCAPR1/2/3a. (C) The timing of ecdysis initiation in dsGFP (control), dsCCAPpre (Schgr-CCAPpre knockdown) and dsCCAPR1/2/3a (Schgr-CCAPRs knockdown) injected nymphs, as observed starting from freshly molted fifth instar nymphs. A log-rank (Mantel-Cox) test was used to check for significant differences in ecdysis initiation between populations. (D) Rescue of Schgr-CCAPpre depleted nymphs (n = 30) by additional daily injections of 0.92 pg CCAP in 4 µL S. gregaria saline in N5. In the control groups, nymphs received dsGFP injections or dsCCAPpre injections (n = 31), with additional daily injections of S. gregaria saline in N5. Significant differences (p < 0.05) are indicated by an asterisk (*) and calculated by the Fisher’s exact test. (E) Ecdysis deficient phenotype (top photos). […]

Assay [3] has as its system Schgr-CCAPR-3. Kind of assay: CRE(6x)-luc reporter assay, HEK-293T cells. The assay is classed as cell-based, Schistocerca gregaria. The following applies: CRE-controlled luciferase, three independent experiments, in triplicate. The source says:
(§1) To deorphanize the three GPCRs, they were heterologously expressed in Chinese hamster ovary (CHO)-WTA11 cells, which stably express aequorin and a promiscuous Gα16 subunit. […] Intracellular signaling of Schgr-CCAPR-1, -2 and -3 was investigated in Schgr-CCAPR-expressing cells lacking the promiscuous Gα16 subunit (CHO-PAM28 cells) or co-expressing a cyclic AMP (cAMP) response element (CRE)-luciferase reporter (human embryonic kidney (HEK) 293T). In Schgr-CCAPR expressing CHO-PAM28 cells, Schgr-CCAP induced dose-dependent aequorin-based bioluminescent responses, with EC50 values in the subnanomolar range: 0.7 nM, 0.2 nM and 0.5 nM for Schgr-CCAPR-1, -2 and -3, respectively (Figure S4A).
(§2) Aequorin and CRE(6x)-luc reporter assays, as well as maintenance of the cell cultures and cell transfections, were carried out as previously described. […] Minimum bioluminescence values correlate with the signal obtained in the blank condition (without exposure to S. gregaria peptides). Calculations were performed using the output file from the Microwin software (Berthold Technologies, Bad Wildbad, Germany) in Excel (Microsoft). Half-maximal effective concentrations (EC50) were determined with the PRISM software (Graphpad version 6.03) using non-linear regression, log(agonist) vs. normalized response, applied to a sigmoidal dose-response model. […]
(§3) S c h g r-C C A P R -1 E C5 0 = 0 ,7 n M
(§4) S c hg r-C C A P R -2 E C5 0 = 0 ,2 n M
(§5) S c h g r-C C A P R -3 E C5 0 = 0 ,5 n M
(§6) S c h g r-C C A P R -1 E C5 0 = 0 ,0 1 n M
(§7) S c hg r-C C A P R -2 E C5 0 = 1 ,2 n M
(§8) S c hg r-C C A P R -3 E C5 0 = 0 ,0 5 n M
(§9) Dose-response curves induced by CCAP for cell -based receptor activity assays A) in CHO-PAM28-Schgr -CCAPR-1, -2 or -3 cells and B) in HEK293T Schgr -CCAPR-1, -2 or -3 cells, co - transfected with CRE(6x)-Luc construct. These cell-based receptor activity data were obtained from three independent experiments. The bioluminescence was measured in triplicate per concentration of Schgr -CCAP and per transfection. Error bars represent the S.E.M and the 100 % level refers to the maximal response level. […]
For orientation: A reporter such as luciferase makes a cellular process visible.

For assay [4], the system named is Schgr-CCAPR-1. Description: CRE(6x)-luc reporter assay, HEK-293T cells. The assay is classed as cell-based, Schistocerca gregaria. The following applies: CRE-controlled luciferase, three independent experiments, in triplicate.
Excerpt: as §1, §2, §3, §4, §5, §6, §7, §8, §9

Assay [5] deals with Schgr-CCAPR-2. Kind of assay: CRE(6x)-luc reporter assay, HEK-293T cells. The assay is classed as cell-based, Schistocerca gregaria. The settings on record: CRE-controlled luciferase, three independent experiments, in triplicate.
Excerpt: as §1, §2, §3, §4, §5, §6, §7, §8, §9

The subject of assay [6] is 20E levels. The following applies: daily injection, adult American cockroach; ref [35]; cited from earlier work. As to the method:
High relative transcript levels of the Schgr-CCAPRs were determined in the PG at N5WD. […] From these observations we conclude that CCAP acts directly on the prothoracic gland as a prothoracicostatic factor. In contrast to the ecdysiostatic activity of CCAP in S. gregaria nymphs, dai ...

Assay [7] has as its system Schgr-CCAPR-3. Kind of assay: aequorin bioluminescence assay, CHO-PAM28 cells. The settings on record: CHO-PAM28 cells lacking Gα16, aequorin; three independent experiments, in triplicate. The assay is classed as cell-based, Schistocerca gregaria.
Excerpt: as §1, §2, §3, §4, §5, §6, §7, §8, §9

Assay [8] relates to Schgr-CCAPR-1. Description: aequorin bioluminescence assay, CHO-PAM28 cells. The assay is classed as cell-based, Schistocerca gregaria. The settings on record: CHO-PAM28 cells lacking Gα16, aequorin; three independent experiments, in triplicate.
Excerpt: as §1, §2, §3, §4, §5, §6, §7, §8, §9

The subject of assay [9] is Schgr-CCAPR-2. Description: aequorin bioluminescence assay, CHO-PAM28 cells. The assay is classed as cell-based, Schistocerca gregaria. The settings on record: CHO-PAM28 cells lacking Gα16, aequorin; three independent experiments, in triplicate.
Excerpt: as §1, §2, §3, §4, §5, §6, §7, §8, §9

Assay [10] deals with prothoracic gland (PG) explants. Kind of assay: ecdysteroid secretion by prothoracic gland explants. Also noted: species or system Schistocerca gregaria. The following applies: 1 µM CCAP, 24 h, 50 µL Grace's insect medium, 30 °C, PG from N5IW nymphs, n = 16 vs n = 15, p < 0.001. As to the method: Figure 6 Ecdysteroid secretion by prothoracic gland (PG) explants incubated for 24 h in a volume of 50 µL Grace’s insect medium (GI) with or without 1 µM CCAP. PGs were micro-dissected from fifth instar (N5) nymphs at N5IW (inter-wing distance of at least 1.8 mm; GI, n = 15; GI + 1 µM CCAP, n = 16) Each data point represents 20E-equivalents secreted by PG from a single nymph. Mean ± S.E.M. is also indicated per group. Significant difference (p < 0.001) is indicated by asterisks (***) and was calculated by an unpaired t-test with Welch’s correction. Used abbreviations: CCAP = crustacean cardioactive peptide and GI = Grace’s Insect Medium.
To correlate the locust’s morphology to the nymphal ecdysteroid titer that regulates molting, hemolymph was collected as well at the described sampling moments. 20 µL hemolymph from each N5 animal was collected into 280 µL cold ethanol. Each sample was further processed as previously described. The ecdysteroid titers were subsequently quantified using the 20-Hydroxyecdysone ELISA kit (Bertin Technologies, Montigny-le-Bretonneux, France), according to the manufacturer’s protocol.
PGs of N5IW nymphs were micro-dissected in S. gregaria saline solution and incubated in 50 µL Grace’s Insect medium (GI) (Invitrogen, Waltham, MA, USA) containing 1 µM CCAP or in GI without peptide. […]

Assay [11] has as its system locust oviducts. The following applies: Ca^2+-dependent, ref [32]; cited from earlier work. The text has this:
The three Schgr-CCAPRs show high sequence similarity to deorphanized CCAP receptors of D. melanogaster, T. castaneum and R. prolixus. Although only one CCAP receptor has been identified in many insect species, there are other species, such as S. gregaria, which have multiple isoforms. […] This is a commonly occurring feature during evolution of GPCR genes in both vertebrates and invertebrates. To supp ...

The test system of assay [12] is Schgr-CCAPR-3. Description: aequorin bioluminescence assay, CHO-WTA11 cells. The assay is classed as cell-based, Schistocerca gregaria.
Excerpt: as §1
(§10) Figure 2 Aequorin-based bioluminescent responses in cell-based receptor activity assays. (A) Dose-response curves induced by CCAP in CHO-WTA11-Schgr-CCAPR-1, -2 or -3 cells. The EC50 values are indicated. (B) Results for aequorin-based bioluminescent response induced in CHO-WTA11-Schgr-CCAPR-1, -2 and -3 cells upon addition of 1 µM of peptide. These cell-based receptor activity data were obtained from three independent experiments. The cell-based assays were executed in three independent transfections. Error bars in dose-response curves represent the S.E.M and the 100% level refers to the maximal response level. Agonist selectivity was normalized to bioluminescent response acquired by exposure to CCAP. The zero-response level corresponds to treatment with BSA medium only. Abbreviations: Schgr = Schistocerca gregaria, CCAP = crustacean cardioactive peptide, CCAPR = CCAP receptor, CCHa = CCHamide, ASTC = allostatin C, ASTCCC = allostatin CCC, Crz = corazonin, AKH I(I) = adipokinetic hormone I(I), INT = inotocin.
(§11) Aequorin and CRE(6x)-luc reporter assays, as well as maintenance of the cell cultures and cell transfections, were carried out as previously described. […] Minimum bioluminescence values correlate with the signal obtained in the blank condition (without exposure to S. gregaria peptides). Calculations were performed using the output file from the Microwin software (Berthold Technologies, Bad Wildbad, Germany) in Excel (Microsoft). Half-maximal effective concentrations (EC50) were determined with the PRISM software (Graphpad version 6.03) using non-linear regression, log(agonist) vs. normalized response, applied to a sigmoidal dose-response model.

Assay [13] concerns Schgr-CCAPR-1. Description: aequorin bioluminescence assay, CHO-WTA11 cells. The assay is classed as cell-based, Schistocerca gregaria.
Excerpt: as §1, §10, §11

In assay [14] the test system is Schgr-CCAPR-2. Kind of assay: aequorin bioluminescence assay, CHO-WTA11 cells. The assay is classed as cell-based, Schistocerca gregaria.
Excerpt: as §1, §10, §11

[15] abbreviates: 1 µM peptide, normalized to CCAP response.
Setting [16] is: aequorin and promiscuous Gα16, three independent experiments.

In general, EC50 refers to the midpoint of the concentration-response curve. crustacean cardioactive peptide [CCAP]: the “heartbeat and contraction of skeletal muscles” value in assay [1] was “stimulate heartbeat and contraction of skeletal muscles”. For the same substance, the “rescue effect of ecdysis deficiency phenotype” value in assay [2] amounted to 60%. Also, the EC50 in [3] turned out to be 0.05 nM; in [4] it was 0.01 nM; in [5] it was 1.2 nM; in [7], 0.5 nM; in [8] it was 0.7 nM; in [9], 0.2 nM. Further, the figures for the EC50 in [12] (setting [16]), in assay [13] (setting [16]) and in assay [14] (setting [16]) were 0.59 nM, 3.65 nM and 0.32 nM, respectively. For the same substance, the 20E levels entry in assay [6] was “elevated 20E levels”. Besides, the “ecdysteroid secretion (prothoracicostatic activity)” value is “significant prothoracicostatic activity” in assay [10] and “suppressed ecdysteroid secretion” in assay [10] (listed as Schgr-CCAP). Further, the oviduct contractions result in assay [11] was “induces Ca^2+-dependent contractions”. The “agonist selectivity, receptor activation” value in assay [12] (setting [15]), in assay [13] (setting [15]) and in assay [14] (setting [15]) was “markedly activated” in each case.

(Values after article PMC8704491, “Prothoracicostatic Activity of the Ecdysis-Regulating Neuropeptide Crustacean Cardioactive Peptide (CCAP) in the Desert Locust” (International Journal of Molecular Sciences, 2021).)
